Values of other authors, collected in patent US20250115648A1 (priority 2013, published 2025).
“And” between values parts separate entries of the source, which are not always exact repeats. Equal entries are not always repeated.

Settings: cited from earlier work; for Peak Abs.: peak absorbance wavelength of exemplary fluorescent reporter molecule; for Peak Em.: peak emission wavelength of exemplary fluorescent reporter molecule

Carboxynaphthofluorescein
Peak Abs.: 600 nanometers
Peak Em.: 674 nanometers

Cc1cc(=O)oc2c(F)c(O)c(F)cc12 [DiFMU (pH 9.0)]
Peak Abs.: 357 nanometers
Peak Em.: 450 nanometers

Rhod-2
Peak Abs.: 551 nanometers
Peak Em.: 576 nanometers

CCCCCCCCCCCCCCCCCCN1/C(=C/C=C/C2=[N+](CCCCCCCCCCCCCCCCCC)c3ccccc3C2(C)C)C(C)(C)c2ccccc21.[O-][Cl+3]([O-])([O-])[O-] [DiI (CellTrackerDiI)]
Peak Abs.: 551 nanometers
Peak Em.: 568 nanometers

Nitrobenzoxadiazole
Peak Abs.: 465 nanometers
Peak Em.: 510 nanometers

O=C([O-])CN(CC(=O)[O-])c1ccccc1OCCOc1cc(NC(=O)c2ccc3c(c2)C(=O)OC32c3cc(Cl)c([O-])cc3Oc3cc([O-])c(Cl)cc32)ccc1N(CC(=O)[O-])CC(=O)[O-].[K+].[K+].[K+].[K+].[K+].[K+] [Calcium Green-1]
Peak Abs.: 506 nanometers
Peak Em.: 540 nanometers

Nc1ccc([N+](=O)[O-])c2nonc12 [NBD Amine]
Peak Abs.: 450 nanometers
Peak Em.: 530 nanometers

C[N+]1=C(/C=C/C=C/C=C2\N(Cc3ccc(CCl)cc3)c3ccccc3C2(C)C)C(C)(C)c2ccccc21.[Cl-] [MitoTracker Deep Red FM]
Peak Abs.: 641 nanometers
Peak Em.: 661 nanometers

Methoxycoumarin
Peak Abs.: 360 nanometers
Peak Em.: 410 nanometers

O=C([O-])c1ccc(C2=c3cc4c5c(c3Oc3c2cc2c6c3CCCN6CCC2)CCC[N+]=5CCC4)c(C(=O)O)c1 [Compound 5-ROX]
Peak Abs.: 577 nanometers
Peak Em.: 603 nanometers

O=c1cc(CBr)c2cc3c4c(c2o1)CCCN4CCC3 [CellTracker Violet BMQC]
Peak Abs.: 415 nanometers
Peak Em.: 516 nanometers

CN1/C(=C/C=C/c2cc[n+](CCC[N+](C)(C)CCC[N+](C)(C)CCC[n+]3ccc(/C=C/C=C4/Oc5ccccc5N4C)cc3)cc2)Oc2ccccc21.[I-].[I-].[I-].[I-] [POPO-3]
Peak Abs.: 532 nanometers
Peak Em.: 573 nanometers

COc1cc2cc(-c3ccc(C(=O)O)cc3C(=O)O)oc2cc1N1CCOCCOCCN(c2cc3oc(-c4ccc(C(=O)O)cc4C(=O)O)cc3cc2OC)CCOCCOCC1 [PBFI]
Peak Abs.: 360 nanometers
Peak Em.: 420 nanometers

CCCCCCCCCCCCc1cc2nc3ccc(O)cc3oc-2cc1=O [2-dodecylresorufm]
Peak Abs.: 582 nanometers
Peak Em.: 595 nanometers

CC1CC(C)(C)Nc2c1cc1c(c2S(=O)(=O)[O-])Oc2c(S(=O)(=O)[O-])c3c(cc2=C1c1c(Cl)c(SCC(=O)NCCCCCC(=O)ON2C(=O)CCC2=O)c(Cl)c(Cl)c1C(=O)O)C(C)CC(C)(C)N=3.[H+].[Na+] (centres unmarked) [Alexa Fluor 546]
Peak Abs.: 561 nanometers
Peak Em.: 572 nanometers

CCN(CC)c1ccc(/C=C/C=C/c2cc[n+](CC(O)C[N+](C)(C)CCO)cc2)cc1.[Br-].[Br-] (centres unmarked) [RH 795]
Peak Abs.: 530 nanometers
Peak Em.: 712 nanometers

Texas Red
Peak Abs.: 592 nanometers
Peak Em.: 615 nanometers

Phycoerythrin [Phycoerythrin (PE, R-phycoerythrin)]
Peak Abs.: 567 nanometers
Peak Em.: 576 nanometers

SYTO 16
Peak Abs.: 490 nanometers
Peak Em.: 520 nanometers

CCN1c2cc3c(cc2C(C)=CC1(C)C)C(=CC=CC1=[N+](CCCCCC(=O)O)c2ccc(S(=O)(=O)[O-])cc2C1(C)C)C=C(c1ccccc1)O3 [DY-675]
Peak Abs.: 675 nanometers
Peak Em.: 699 nanometers

O=C1OC2(c3ccc(O)cc3Oc3cc(O)ccc32)c2ccc(N=C=S)cc21 [FITC (Fluorescein), fluorescein isothiocyanine]
Peak Abs.: 492 nanometers
Peak Em.: 520 nanometers

Fluo-4
Peak Abs.: 494 nanometers
Peak Em.: 540 nanometers

O=C(O)CSc1c(F)c(F)c(C(=O)O)c(-c2c3cc(F)c(=O)cc-3oc3cc(O)c(F)cc23)c1F [Oregon Green 514]
Peak Abs.: 512 nanometers
Peak Em.: 532 nanometers

CN(C)c1ccc2c(-c3ccc(CCl)cc3)c3ccc(=[N+](C)C)cc-3oc2c1.[Cl-]
Peak Abs.: 551 nanometers
Peak Em.: 576 nanometers

carboxytetramethyl-rhodamine [TAMRA]
Peak Abs.: 565 nanometers
Peak Em.: 580 nanometers

CCN1c2cc3c(cc2C(C)=CC1(C)C)N=c1cc2c(cc1O3)=[N+](CCCC(=O)O)C(C)(C)C=C2CS(=O)(=O)O [ATTO 700]
Peak Abs.: 699 nanometers
Peak Em.: 719 nanometers

O=C(O)c1cc2cc(F)c(O)c(F)c2oc1=O [Pacific Blue]
Peak Abs.: 405 nanometers and 410 nanometers
Peak Em.: 455 nanometers

Cl.Cl.N=C(N)c1ccc2oc(/C=C/c3cc4cc(C(=N)N)ccc4o3)cc2c1 [True Blue]
Peak Abs.: 365 nanometers
Peak Em.: 425 nanometers

Nc1ccc2cc3ccc(N)cc3[n+](CCCC(=O)O)c2c1.[O-][Cl+3]([O-])([O-])[O-] [ATTO 465]
Peak Abs.: 453 nanometers
Peak Em.: 507 nanometers

CC1(C)C2=C(Cl)C(=O)C(Cl)=CC2=Nc2ccc(O)cc21 [DDAO]
Peak Abs.: 648 nanometers
Peak Em.: 658 nanometers

SYTO 9
Peak Abs.: 482 nanometers
Peak Em.: 500 nanometers

Cc1c2oc3c(C)c(N)cc(C(=O)N[C@@H]4C(=O)N[C@H](C(C)C)C(=O)N5CCC[C@H]5C(=O)N(C)CC(=O)N(C)[C@@H](C(C)C)C(=O)O[C@@H]4C)c3nc-2c(C(=O)N[C@@H]2C(=O)N[C@H](C(C)C)C(=O)N3CCC[C@H]3C(=O)N(C)CC(=O)N(C)[C@@H](C(C)C)C(=O)O[C@@H]2C)c(N)c1=O [Compound 7-AAD, 7-AAD]
Peak Abs.: 549 nanometers
Peak Em.: 644 nanometers

CFP: Exemplary fluorescent reporter molecules
Peak Abs.: 434 nanometers

O=S(=O)(O)c1cc(Nc2nc(Nc3ccccc3)nc(N(CCO)CCO)n2)ccc1/C=C/c1ccc(Nc2nc(Nc3ccccc3)nc(N(CCO)CCO)n2)cc1S(=O)(=O)O [Calcofluor White]
Peak Abs.: 350 nanometers
Peak Em.: 440 nanometers

CC1(C)C(=CC=C2CCCC(C=CC3=[N+](CCCCCC(=O)[O-])c4ccc(S(=O)(=O)[O-])cc4C3(C)C)=C2Oc2ccc(S(=O)(=O)[O-])cc2)N(CCCCS(=O)(=O)[O-])c2ccc(S(=O)(=O)[O-])cc21.[Na+].[Na+].[Na+].[Na+] [IRDye 800CW]
Peak Abs.: 774 nanometers
Peak Em.: 789 nanometers

CCCCCCCCCCCCCCCCCCN1/C(=C\C=C\c2oc3ccccc3[n+]2CCCCCCCCCCCCCCCCCC)Oc2ccccc21.[O-][Cl+3]([O-])([O-])[O-] [DiO]
Peak Abs.: 484 nanometers
Peak Em.: 501 nanometers

CC[N+]1=c2cc3c(cc2CCC1)=Nc1cc2c(cc1O3)N(CCCC(=O)O)C(C)(C)C=C2CS(=O)(=O)[O-] [ATTO 680]
Peak Abs.: 680 nanometers
Peak Em.: 700 nanometers

O=C(COc1ccc(/C=C/c2ccc3n2[B-](F)(F)[N+]2=C(c4cccs4)C=CC2=C3)cc1)NCCCCCC(=O)ON1C(=O)CCC1=O [Bodipy 630/650-X]
Peak Em.: 641 nanometers

O=S(=O)([O-])c1cc(Nc2nc(Nc3ccccc3)nc(N(CCO)CCO)n2)ccc1/C=C/c1ccc(Nc2nc(Nc3ccccc3)nc(N(CCO)CCO)n2)cc1S(=O)(=O)[O-].[Na+].[Na+] [Phorwite AR]
Peak Abs.: 360 nanometers
Peak Em.: 430 nanometers

Cy5.5
Peak Abs.: 672 nanometers and 678 nanometers
Peak Em.: 690 nanometers and 696 nanometers

Cc1c(CC(=O)NCCCCCC(=O)O)c(=O)oc2cc(N)ccc12 [AMCA-X]
Peak Abs.: 353 nanometers
Peak Em.: 442 nanometers

Cc1c(CC(=O)O)c(=O)oc2c(F)c(O)c(F)cc12 [Marina Blue]
Peak Abs.: 365 nanometers
Peak Em.: 460 nanometers

CN(C)c1ccc(-c2cnc(-c3ccc(S(=O)(=O)NCCNC(=O)c4c(F)c(F)c(F)c(F)c4F)cc3)o2)cc1 [ER-Tracker Blue-White DPX]
Peak Abs.: 371 nanometers
Peak Em.: 554 nanometers

CCCN(CCCN(C)C)c1cc(/C=C2/Sc3ccccc3N2C)c2ccccc2[n+]1-c1ccccc1 [SYBR Green I]
Peak Abs.: 497 nanometers
Peak Em.: 521 nanometers

O=c1ccc2nc3ccc(O)c([As]4SCCS4)c3oc-2c1[As]1SCCS1 [ReAsH (TC-ReAsH)]
Peak Abs.: 593 nanometers
Peak Em.: 608 nanometers

CN(C)CCNc1ccc(O)c2c1C(=O)c1c(O)ccc(NCCN(C)C)c1C2=O [DRAQ5]
Peak Abs.: 650 nanometers
Peak Em.: 680 nanometers

Cascade Blue
Peak Abs.: 400 nanometers and 377 nanometers
Peak Em.: 420 nanometers

O=S(=O)(O)c1cccc2cccc(Nc3ccccc3)c12 [1,8-ANS]
Peak Abs.: 372 nanometers
Peak Em.: 480 nanometers

CC1=CC(C)=[N+]2C1=Cc1c(C)cc(C)n1[B-]2(F)F [BODIPY 505/515]
Peak Abs.: 502 nanometers
Peak Em.: 540 nanometers

Fast Blue
Peak Abs.: 360 nanometers
Peak Em.: 440 nanometers

O=S(=O)([O-])c1cc(O)c2ccc3c(S(=O)(=O)[O-])cc(S(=O)(=O)[O-])c4ccc1c2c34.[Na+].[Na+].[Na+] [HPTS (Solvent Green 7)]
Peak Abs.: 455 nanometers
Peak Em.: 510 nanometers

CN1/C(=C/c2cc[n+](CCC[N+](C)(C)CCC[N+](C)(C)CCC[n+]3ccc(/C=C4\Sc5ccccc5N4C)c4ccccc43)c3ccccc23)Sc2ccccc21.[I-].[I-].[I-].[I-] [TOTO-1]
Peak Abs.: 513 nanometers
Peak Em.: 531 nanometers

CN1/C(=C/C=C/c2cc[n+](CCC[N+](C)(C)CCC[N+](C)(C)CCC[n+]3ccc(/C=C/C=C4/Sc5ccccc5N4C)cc3)cc2)Sc2ccccc21.[I-].[I-].[I-].[I-] [BOBO-3]
Peak Abs.: 570 nanometers and 571 nanometers
Peak Em.: 602 nanometers and 606 nanometers
